Measurements published in patent publication US20230165846A1, “HETEROCYCLIC GLP-1 AGONISTS” (Gasherbrum Bio, Inc., priority 2020, published 2023).

Molecular target: GLP-1 Receptor (Homo sapiens, UniProt P43220)
Test: GLP-1R agonist cAMP stimulation assay, Method 2 (HDB HEK293/GLP1R/CRE-LUC, Cisbio cAMP dynamic 2 kit)
Type: cell-based
Conditions: HEK293/GLP1R/CRE-LUC cells (HD Biosciences); 30 min at 37° C.; 0.5 mM IBMX, 0.1% BSA; geometric mean where n>=2; read-out: GLP1R cAMP Stimulation DR: EC50 (nM) Method 2 (HDB)
Description: Method 2: Activation of GLP-1 receptor is known to stimulate cyclic AMP (cAMP) production in cells which indicates primary coupling to the Gas subunit of the G protein heterotrimeric complex.
To optimize functional activity directed toward Gas coupling, a HEK293/CRE-Luc cell line developed by HDB stably expressing the GLP-1 Receptor was used. 200× concentration of compound working solutions were prepared (Agilent Technologies Bravo) with ½log serial dilution in 384-well Echo LDV plate (Labcyte, Cat# LP-0200). […] Seal the plate and incubate at 37° C. with 5% CO2 for 30 min.
After incubation the cAMP assay signal was generated using cAMP dynamic 2 Kit (Cisbio). 5 µL cAMP-d2 working solution was added to each well, followed with 5 µL Anti-cAMP antibody-cryptate working solution added to each well using ThermoFisher Multidrop Combi. Incubate at room temperature for 1 hour protected from light.
%Activity = 100% x (mean RLU of test sample - mean RLU of vehicle control) / (mean RLU of MAX control - mean RLU of vehicle control))
This is done to account for the lognormal distribution of multiple estimates of EC50 values. In practice geometric mean is calculated by first generating log values of EC50, averaging replicates and then calculating the antilog of the average.

GLP-1 Receptor, sequence (P43220 24-463): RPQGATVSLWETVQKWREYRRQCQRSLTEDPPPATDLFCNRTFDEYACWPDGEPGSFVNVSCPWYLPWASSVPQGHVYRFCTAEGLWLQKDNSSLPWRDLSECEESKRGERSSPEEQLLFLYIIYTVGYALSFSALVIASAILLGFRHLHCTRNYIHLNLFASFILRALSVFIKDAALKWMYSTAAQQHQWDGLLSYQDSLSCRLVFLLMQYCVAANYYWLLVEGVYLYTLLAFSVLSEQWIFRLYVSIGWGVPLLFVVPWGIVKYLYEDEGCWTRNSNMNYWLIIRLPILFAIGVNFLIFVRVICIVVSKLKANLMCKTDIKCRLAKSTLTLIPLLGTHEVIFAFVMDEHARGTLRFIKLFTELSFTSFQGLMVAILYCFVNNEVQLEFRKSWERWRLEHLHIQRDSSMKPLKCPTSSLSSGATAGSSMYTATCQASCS

In order of rising EC50:
1. O=C(O)c1ccc2nc(CC3CC=C(c4cccc(OCc5ccc(Cl)cc5F)n4)CC3)n(C[C@@H]3CCO3)c2n1 (single isomer, unassigned) [Compound 102b]  0.007 nM
2. N#Cc1ccc(COc2cccc(C3=CCC(Cc4nc5ccc(C(=O)O)nc5n4C[C@@H]4CCO4)CC3)n2)c(F)c1 (single isomer, unassigned) [Compound 101b]  0.0088 nM
3. O=C(O)c1ccc2nc(CC3CC=C(c4ncc(F)c(OCc5ccc(Cl)cc5F)n4)CC3)n(C[C@@H]3CCO3)c2n1 (single isomer, unassigned) [Compound 114b]  0.012 nM
4. O=C(O)c1ccc2nc(CC3CC=C(c4ccc(F)c(OCc5ccc(Cl)cc5F)n4)CC3)n(C[C@@H]3CCO3)c2n1 (stereo partly drawn) [Compound 113a, 2-((4-(6-((4-chloro-2-fluorobenzyl)oxy)-5-fluoropyridin-2-yl)cyclohex-3-en-1-yl)methyl)-3-(((S)-oxetan-2-yl)methyl)-3H-imidazo[4,5-b]pyridine-5-carboxylic acid]  0.015 nM
5. N#Cc1ccc(COc2nc(C3=CCC(Cc4nc5ccc(C(=O)O)nc5n4C[C@@H]4CCO4)CC3)ccc2F)c(F)c1 (stereo partly drawn) [Compound 115a, 2-((4-(6-((4-cyano-2-fluorobenzyl)oxy)-5-fluoropyridin-2-yl)cyclohex-3-en-1-yl)methyl)-3-(((S)-oxetan-2-yl)methyl)-3H-imidazo[4,5-b]pyridine-5-carboxylic acid]  0.018 nM
6. O=C(O)c1ccc2nc(CC3CC=C(c4ncc(F)c(OCc5ccc(Cl)cc5F)n4)CC3)n(C[C@@H]3CCO3)c2n1 (stereo partly drawn) [Compound 114a, 2-((4-(4-((4-chloro-2-fluorobenzyl)oxy)-5-fluoropyrimidin-2-yl)cyclohex-3-en-1-yl)methyl)-3-(((S)-oxetan-2-yl)methyl)-3H-imidazo[4,5-b]pyridine-5-carboxylic acid]  0.02 nM
7. O=C(O)c1cnc2nc(CC3CC=C(c4cccc(OCc5ccc(Cl)cc5F)n4)CC3)n(C[C@@H]3CCO3)c2c1 (stereo partly drawn) [Compound 118a, 2-((4-(6-((4-chloro-2-fluorobenzyl)oxy)pyridin-2-yl)cyclohex-3-en-1-yl)methyl)-1-(((S)-oxetan-2-yl)methyl)-1H-imidazo[4,5-b]pyridine-6-carboxylic acid]  0.02 nM
8. O=C(O)c1ccc2nc(CC3CC=C(c4cccc(OCc5ccc(Cl)cn5)n4)CC3)n(C[C@@H]3CCO3)c2n1 (stereo partly drawn) [Compound 121a, 2-((4-(6-((5-chloropyridin-2-yl)methoxy)pyridin-2-yl)cyclohex-3-en-1-yl)methyl)-3-(((S)-oxetan-2-yl)methyl)-3H-imidazo[4,5-b]pyridine-5-carboxylic acid]  0.027 nM
9. O=C(O)c1ccc2nc(CC3CC=C(c4cccc(OCc5ccc(Cl)cc5F)n4)CC3)n(C[C@@H]3CCO3)c2n1 (single isomer, unassigned) [Compound 102c]  0.044 nM
10. N#CC1(Cn2c(CC3CC=C(c4ncc(F)c(OCc5ccc(Cl)cc5F)n4)CC3)nc3ccc(C(=O)O)nc32)CC1 (stereo not shown) [Compound 125, 2-((4-(4-((4-chloro-2-fluorobenzyl)oxy)-5-fluoropyrimidin-2-yl)cyclohex-3-en-1-yl)methyl)-3-((1-cyanocyclopropyl)methyl)-3H-imidazo[4,5-b]pyridine-5-carboxylic acid]  0.045 nM
11. N#Cc1ccc(COc2nc(C3=CCC(Cc4nc5ccc(C(=O)O)nc5n4CC4(C#N)CC4)CC3)ncc2F)c(F)c1 (stereo not shown) [Compound 123, 2-((4-(4-((4-cyano-2-fluorobenzyl)oxy)-5-fluoropyrimidin-2-yl)cyclohex-3-en-1-yl)methyl)-3-((1-cyanocyclopropyl)methyl)-3H-imidazo[4,5-b]pyridine-5-carboxylic acid]  0.067 nM
12. N#Cc1ccc(COc2cccc(C3=CCC(Cc4nc5ccc(C(=O)O)nc5n4C[C@@H]4CCO4)CC3)n2)c(F)c1 (single isomer, unassigned) [Compound 101c]  0.083 nM
13. O=C(O)c1ccc2nc(CC3CC=C(c4ncc(F)c(OCc5ccc(Cl)cn5)n4)CC3)n(C[C@@H]3CCO3)c2n1 (stereo partly drawn) [Compound 120a, 2-((4-(4-((5-chloropyridin-2-yl)methoxy)-5-fluoropyrimidin-2-yl)cyclohex-3-en-1-yl)methyl)-3-(((S)-oxetan-2-yl)methyl)-3H-imidazo[4,5-b]pyridine-5-carboxylic acid]  0.12 nM
14. O=C(O)c1ccc2nc(CC3CC=C(c4ncc(F)c(OCc5ccc(Cl)cc5F)n4)CC3)n(C[C@@H]3CCO3)c2n1 (single isomer, unassigned) [Compound 114c]  0.13 nM
15. O=C(O)c1cnc2nc(CC3CC=C(c4nccc(OCc5ccc(Cl)cc5F)n4)CC3)n(C[C@@H]3CCO3)c2c1 (stereo partly drawn) [Compound 119a, 2-((4-(4-((4-chloro-2-fluorobenzyl)oxy)pyrimidin-2-yl)cyclohex-3-en-1-yl)methyl)-1-(((S)-oxetan-2-yl)methyl)-1H-imidazo[4,5-b]pyridine-6-carboxylic acid]  0.17 nM
16. N#Cc1ccc(COc2cccc(C3=CCC(Cc4nc5cnc(C(=O)O)cc5n4C[C@@H]4CCO4)CC3)n2)c(F)c1 (stereo partly drawn) [Compound 117a, 2-((4-(6-((4-cyano-2-fluorobenzyl)oxy)pyridin-2-yl)cyclohex-3-en-1-yl)methyl)-1-(((S)-oxetan-2-yl)methyl)-1H-imidazo[4,5-c]pyridine-6-carboxylic acid]  0.37 nM
17. CC(C)(C#N)Cn1c(CC2CC=C(c3ncc(F)c(OCc4ccc(Cl)cc4F)n3)CC2)nc2ccc(C(=O)O)nc21 (stereo not shown) [Compound 126, 2-((4-(4-((4-chloro-2-fluorobenzyl)oxy)-5-fluoropyrimidin-2-yl)cyclohex-3-en-1-yl)methyl)-3-(2-cyano-2-methylpropyl)-3H-imidazo[4,5-b]pyridine-5-carboxylic acid]  0.37 nM
18. CC(C)(C#N)Cn1c(CC2CC=C(c3ncc(F)c(OCc4ccc(C#N)cc4F)n3)CC2)nc2ccc(C(=O)O)nc21 (stereo not shown) [Compound 124, 2-((4-(4-((4-cyano-2-fluorobenzyl)oxy)-5-fluoropyrimidin-2-yl)cyclohex-3-en-1-yl)methyl)-3-(2-cyano-2-methylpropyl)-3H-imidazo[4,5-b]pyridine-5-carboxylic acid]  0.39 nM
19. N#Cc1ccc(COc2nc(C3=CCC(Cc4nc5ccc(C(=O)O)nc5n4CC4CC4)CC3)ncc2F)c(F)c1 (stereo not shown) [Compound 122, 2-((4-(4-((4-cyano-2-fluorobenzyl)oxy)-5-fluoropyrimidin-2-yl)cyclohex-3-en-1-yl)methyl)-3-(cyclopropylmethyl)-3H-imidazo[4,5-b]pyridine-5-carboxylic acid]  0.43 nM
20. O=C(O)c1cc2c(cn1)nc(CC1CC=C(c3cccc(OCc4ccc(Cl)cc4F)n3)CC1)n2C[C@@H]1CCO1 (stereo partly drawn) [Compound 116a, 2-((4-(6-((4-chloro-2-fluorobenzyl)oxy)pyridin-2-yl)cyclohex-3-en-1-yl)methyl)-1-(((S)-oxetan-2-yl)methyl)-1H-imidazo[4,5-c]pyridine-6-carboxylic acid]  0.73 nM
21. COCCn1c(CC2CC=C(c3ncc(F)c(OCc4ccc(Cl)cc4F)n3)CC2)nc2ccc(C(=O)O)nc21 (stereo not shown) [Compound 127]  0.83 nM
22. CC#CCn1c(CC2CC=C(c3cccc(OCc4ccc(Cl)cc4F)n3)CC2)nc2ccc(C(=O)O)nc21 (stereo not shown) [Compound 128, 3-(but-2-yn-1-yl)-2-((4-(6-((4-chloro-2-fluorobenzyl)oxy)pyridin-2-yl)cyclohex-3-en-1-yl)methyl)-3H-imidazo[4,5-b]pyridine-5-carboxylic acid]  59 nM
